pEC50, pIC50: −log10 of the molar value. Read-outs that look alike come from different tables or passages of the source.
Assays:
[1] = Drug concentration in PBMC after oral administration in rhesus monkeys; type: in vivo; parameters: concentration of Ig-TP in PBMC: unit not given here; conditions: for Drug concentration in PBMC, Compound 3TC-TP: oral 3TC 20 mg/kg
Procedure: The PBMC was separated from the remaining venous blood with Ficoll-Paque separation medium, condensed to 0.3 mL of cell suspension, counted, and stored frozen below −20° C.
The PBMC sample was crushed with an ultrasonic cell crusher, followed by addition of 3 times volume of acetonitrile, vortexed for 60 seconds, followed by 1 volume of the water, vortexed for 60 seconds, and centrifuged at 3000 rpm for 5 minutes; the supernatant was aspirated, transferred into a 10 mL round-bottom glass tube, dried in a stream of nitrogen at 40° C., and redissolved in 500 μL of methanol solution (methanol: water=2:8 (v/v)); the resulting solution was vortexed for 60 seconds, transferred into a 1.5 mL EP tube, centrifuged at 13000 rpm for 5 minutes, filtered, and centrifuged to obtain […] of supernatant for […] analysis.

HIV-1 (HIV-luc/JRFL) = experiment: microbe, parasite or virus in culture; type: cell-based; conditions: for pEC50: read-out: anti-HIV activity EC50 (50% effective concentration)
Excerpt: The plasmids used for packaging pseudotyped single-cycle infectious HIV-1 (HIV-luc/JRFL) are as follows: the plasma pLAI-Aenv-Luc contains HIV-1 isolate in which Env and Vpr genes are deleted and luciferase gene is inserted into the Nef locus; and the plasma pJRFL contains CCR5-tropic HIV-1 env gene; the two plasmas are co-transfected into HEK293T cells; the supernatant was collected, filtered, and packaged; and the virion capture was quantified by […] ELISA.
(§1) CD4^+ T cells (Hut/CCR5) were cultured in RPMI 1640 medium (Gibco) containing 10% fetal bovine serum (Gibco), 100 U/mL penicillin (Invitrogen), and 100 […] (Invitrogen). 1×10^5 Hut/CCR5 cells were added to the compound Ia or Ib, infected with HIV-luc/JRFL (1 ng p24gag), incubated at 37° C. for 3 hours, washed to remove free virus, and resuspended in cell culture medium, followed by addition of the corresponding compound to be tested, incubated at 37° C. for 3 days, and collected for measurement of the luciferase activity and calculation of the percentage of viral inhibition.
as §1, with “in” for “in RPMI”, “Ig-TP (CL-002-TP),” for “Ia or Ib,”, “virus” for “viral”

[2] = Drug concentration in plasma after oral administration in rhesus monkeys; type: in vivo; conditions: oral 6 mg/kg compound Ia, 24 hours
in vitro = type: cell-based; conditions: human
Procedure: (§2) CD4^+ T cells (Hut/CCR5) were plated into the wells of a 96-well plate ([…]), followed by addition of different compounds to be tested; the 96-well plate was incubated at 37° C. in an incubator for 3 days; 20 μL of MTT solution was added into the wells ([…]) of the 96-well plate; the 96-well plate was incubated at 37° C. in the incubator for 4 hours; 100 μL of Formazan solution was added into the wells of the 96-well plate; the 96-well plate was incubated at 37° C. in the incubator until the complete dissolution of Formazan was observed by a common optical microscope; and the absorbance of the solution was measured at 570 nm (as shown in FIGS. 2 and 4).
(§3) The cytotoxicity of the compound Ig-TP on CD4^+ T cells (Hut/CCR5) was measured using MTT assay.

HIV = conditions: literature (Michailidis et al 2009); read-out: anti-HIV EC50; cited from earlier work
CD4+ T cells (Hut/CCR5) = experiment: in vitro; type: cell-based
Procedure: as §2, §3

[3] = Human immunodeficiency virus 1, Hut/CCR5, 72 h

## Nc1ccn([C@@H]2CS[C@H](COP(=O)(O)OP(=O)(O)OP(=O)(O)O)O2)c(=O)n1 [Compound 3TC-TP, reference compound]
[1]; 1 h
  Drug concentration in PBMC, Compound 3TC-TP: 0.51 pmol/10^6 cells
[1]; 6 h
  Drug concentration in PBMC, Compound 3TC-TP: 2.45 pmol/10^6 cells

## C#CC1(CO)OC(n2cnc3c(N)nc(F)nc32)C(F)C1O (stereo not drawn) [Compound Ia]
HIV-1 (HIV-luc/JRFL); [3]
  pEC50: 9.05
[2]
  compound Ia in plasma: undetectable
In vitro
  CC50 at 3 days: > 8 µM

## C#C[C@]1(CO)O[C@@H](n2cnc3c(N)ncnc32)C[C@@H]1O [EdA, 4′-ethynyl-2′-deoxyadenosine]
HIV
  pEC50: 7.96

## [N-]=[N+]=NC1(CO)OC(n2cnc3c(N)nc(F)nc32)C(F)C1O (stereo not drawn) [Ib]
HIV-1 (HIV-luc/JRFL); [3]
  pEC50: 9.21
In vitro
  CC50 at 3 days: > 149 µM

## [N-]=[N+]=NC1(COP(=O)(O)OP(=O)(O)OP(=O)(O)O)OC(n2ccc(N)nc2=O)CC1O (stereo not drawn) [Compound Ig-TP]
HIV-1 (HIV-luc/JRFL); Hut/CCR5 cells, HIV-luc/JRFL
  inhibition of HIV viral proliferation IC50: 0.373 ng/mL
HIV-1 (HIV-luc/JRFL); Hut/CCR5 cells, HIV-luc/JRFL, 3 days
  pEC50: 8.89
HIV-1 (HIV-luc/JRFL); Hut/CCR5 cells, HIV-luc/JRFL, read-out: inhibition of HIV viral proliferation IC50
  pIC50: 8.89
[1]; oral compound Ig 1 mg/kg, 1 h
  Drug concentration in PBMC, Compound Ig-TP: 0.39 pmol/10^6 cells
[1]; oral compound Ig 1 mg/kg, 6 h
  Drug concentration in PBMC, Compound Ig-TP: 2.10 pmol/10^6 cells
[1]; oral compound Ig 1 mg/kg, 24 h
  Drug concentration in PBMC, Compound Ig-TP: 0.29 pmol/10^6 cells
[1]; oral compound Ig 1 mg/kg, 72 h
  Drug concentration in PBMC, Compound Ig-TP: 0.66 pmol/10^6 cells
[1]; oral compound Ig 1 mg/kg, 120 h
  Drug concentration in PBMC, Compound Ig-TP: 0.54 pmol/10^6 cells
[1]; oral compound Ig 6 mg/kg, 1 h
  Drug concentration in PBMC, Compound Ig-TP: 0.23 pmol/10^6 cells
[1]; oral compound Ig 6 mg/kg, 6 h
  Drug concentration in PBMC, Compound Ig-TP: 4.07 pmol/10^6 cells
[1]; oral compound Ig 6 mg/kg, 24 h
  Drug concentration in PBMC, Compound Ig-TP: 0.44 pmol/10^6 cells
[1]; oral compound Ig 6 mg/kg, 72 h
  Drug concentration in PBMC, Compound Ig-TP: 1.85 pmol/10^6 cells
[1]; oral compound Ig 6 mg/kg, 120 h
  Drug concentration in PBMC, Compound Ig-TP: 1.35 pmol/10^6 cells
[1]; rhesus monkeys, oral 6 mg/kg compound Ig, 120 hours (5 days)
  concentration of Ig-TP in PBMC: 1.35
CD4+ T cells (Hut/CCR5)
  CC50: 8.13 µM
  cytotoxicity CC50: 2,328 ng/ml
